PubChem BioAssay (NCI)
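A five-concentration, 48-hour dose response in 96-well plates underlies each endpoint, interpolated linearly between surrounding concentrations. TGI: total growth inhibition.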

Assays:
Assay in all cases: NCI anticancer screen, dose series, 48 h
HS 578T breast = tested on: HS 578T breast
SF-295 CNS = tested on: SF-295 CNS
IGROV1 ovarian = tested on: IGROV1 ovarian
M14 melanoma = tested on: M14 melanoma
ACHN renal = tested on: ACHN renal
CCRF-CEM leukemia = tested on: CCRF-CEM leukemia
NCI-H460 lung = tested on: NCI-H460 lung
A549 NSCLC = tested on: A549 NSCLC
UACC-257 melanoma = tested on: UACC-257 melanoma
HCT-116 colon = tested on: HCT-116 colon

Structure (SMILES)	TGI (HS 578T breast) [µM]	TGI (SF-295 CNS) [µM]	TGI (IGROV1 ovarian) [µM]	TGI (M14 melanoma) [µM]	TGI (ACHN renal) [µM]	TGI (CCRF-CEM leukemia) [µM]	TGI (NCI-H460 lung) [µM]	TGI (A549 NSCLC) [µM]	TGI (UACC-257 melanoma) [µM]	TGI (HCT-116 colon) [µM]
Nc1ccc(Oc2ccc(C34CC5CC6C3CC3CC4C(C5)C6(c4ccc(Oc5ccc(N)cc5)cc4)C3)cc2)cc1	> 67.5	81.4	> 78.8	21.4	> 100	> 63.6	61.2	> 83.8	> 32.5	41.1
C=C(CCC/C(C)=C/C=C/[C@]1(C)CCCc2ccoc21)CC(=O)O	> 100	> 100	> 100	> 100	> 100	> 100	> 100	> 100	> 100	> 100
c1nc(OCC2CCCCC2)c2[nH]cnc2n1	> 100	> 100	> 100	> 100	> 100	> 100	> 100	> 100	> 100	> 100
FC(F)(F)c1ccc(N=C/C=C(/Nc2ccc(C(F)(F)F)cc2)c2ccc(Cl)cc2)cc1	38.2	36.1	25.5	30.5	26.2	> 100	> 100	35.5	38.3	24.5
CC(=O)Nc1ccc(C(=O)NN2C(=O)CSC2c2ccc([N+](=O)[O-])cc2)cc1 (stereo not given)	> 100	> 100	> 100	> 100	> 100	> 100	> 100	> 100	> 100	> 100
